Nine molecules from ChEMBL document CHEMBL5518236, “Discovery of Clinical Candidate AZD5462, a Selective Oral Allosteric RXFP1 Agonist for Treatment of Heart Failure” (J Med Chem, 2024) can be followed below.

Broadly, the logD is lipophilicity at a set pH, counting ionised and neutral species.

Bounds are passed on as bounds.

The first data set in a line: Metabolic stability in human liver microsomes assessed as unbound intrinsic clearance at 1 uM measured upto 30 mins by LC-MS/MS analysis. The format is ADME, Microsome. The conditions noted are these: 0.5 h. For orientation: Liver microsomes are a subcellular fraction often used to study metabolism.
`COc1cc(F)c(O[C@H]2CC[C@@](C)(c3n[nH]c(=O)o3)CC2)cc1C(=O)N[C@@H]1[C@H]2CC[C@H](C2)[C@@H]1C(=O)NCC1(C)CCC1`: the CL free is 2.8 10^3uL/min/mg.
Still for that read-out and setting: the result for `COc1cc(F)c(O[C@H]2CC[C@@](C)(C(=O)O)CC2)cc1C(=O)N[C@@H]1[C@H]2CC[C@H](C2)[C@@H]1C(=O)NCC(C)C` reads 7.6 µL/min/mg; that for `COc1cc(C#N)c(O[C@H]2CC[C@@](C)(C(=O)O)CC2)cc1C(=O)N[C@@H]1[C@H]2CC[C@H](C2)[C@@H]1C(=O)NCC1(C)CCC1`, 30 µL/min/mg.
As to `COc1c(F)cc(O[C@H]2CC[C@@](C)(C(=O)O)CC2)cc1C(=O)N[C@@H]1[C@H]2CC[C@H](C2)[C@@H]1C(=O)NCC1(C)CCC1`, the CL free came out at 73 µL/min/mg.
On the same count and under the same terms, the result for `COc1cc(C)c(O[C@H]2CC[C@@](C)(C(=O)O)CC2)cc1C(=O)N[C@@H]1[C@H]2CC[C@H](C2)[C@@H]1C(=O)NCC1(C)CCC1` reads 54 µL/min/mg; that for `COc1cc(F)c(O[C@H]2CC[C@@](C)(c3nnn[nH]3)CC2)cc1C(=O)N[C@@H]1[C@H]2CC[C@H](C2)[C@@H]1C(=O)NCC1(C)CCC1`, 29 µL/min/mg; that for `COc1cc(C2CC2)c(O[C@H]2CC[C@@](C)(C(=O)O)CC2)cc1C(=O)N[C@@H]1[C@H]2CC[C@H](C2)[C@@H]1C(=O)NCC1(C)CCC1`, 62 µL/min/mg.
As to `CC1(CNC(=O)[C@H]2[C@@H]3CC[C@@H](C3)[C@H]2NC(=O)c2cc(O[C@H]3CC[C@@](C)(C(=O)O)CC3)cc3c2OCC3)CCC1`, the CL free was determined as 30 µL/min/mg.
On to `COc1cc(F)c(O[C@H]2CC[C@@](C)(C(=O)O)CC2)cc1C(=O)N[C@@H]1[C@H]2CC[C@H](C2)[C@@H]1C(=O)N[C@H](C)C(C)(C)C`, for which the CL free is 50 µL/min/mg.

Another data set can be described thus: Metabolic stability in human hepatocytes assessed as intrinsic clearance measured per 10^6 viable cells/ml at 1 uM measured upto 120 mins by LC-MS/MS analysis. The format is ADME, cell-based, Hepatocyte. The conditions noted are these: read-out: CLH.
In the case of `COc1cc(F)c(O[C@H]2CC[C@@](C)(c3n[nH]c(=O)o3)CC2)cc1C(=O)N[C@@H]1[C@H]2CC[C@H](C2)[C@@H]1C(=O)NCC1(C)CCC1`, the hepatocyte CLint at 1 µM turned out to be 73 µL/min/1e6 cells.
The same measure, in the same setting: the result for `COc1cc(F)c(O[C@H]2CC[C@@](C)(C(=O)O)CC2)cc1C(=O)N[C@@H]1[C@H]2CC[C@H](C2)[C@@H]1C(=O)NCC(C)C` reads under 1 µL/min/1e6 cells; that for `COc1cc(C#N)c(O[C@H]2CC[C@@](C)(C(=O)O)CC2)cc1C(=O)N[C@@H]1[C@H]2CC[C@H](C2)[C@@H]1C(=O)NCC1(C)CCC1`, 5.5 µL/min/1e6 cells; that for `COc1c(F)cc(O[C@H]2CC[C@@](C)(C(=O)O)CC2)cc1C(=O)N[C@@H]1[C@H]2CC[C@H](C2)[C@@H]1C(=O)NCC1(C)CCC1`, 5.3 µL/min/1e6 cells.
On the same count and under the same terms, the result for `COc1cc(C)c(O[C@H]2CC[C@@](C)(C(=O)O)CC2)cc1C(=O)N[C@@H]1[C@H]2CC[C@H](C2)[C@@H]1C(=O)NCC1(C)CCC1` reads 3.1 µL/min/1e6 cells.
On the same count and under the same terms, the result for `COc1cc(F)c(O[C@H]2CC[C@@](C)(c3nnn[nH]3)CC2)cc1C(=O)N[C@@H]1[C@H]2CC[C@H](C2)[C@@H]1C(=O)NCC1(C)CCC1` reads 5.8 µL/min/1e6 cells; that for `COc1cc(C2CC2)c(O[C@H]2CC[C@@](C)(C(=O)O)CC2)cc1C(=O)N[C@@H]1[C@H]2CC[C@H](C2)[C@@H]1C(=O)NCC1(C)CCC1`, 5.3 µL/min/1e6 cells; that for `CC1(CNC(=O)[C@H]2[C@@H]3CC[C@@H](C3)[C@H]2NC(=O)c2cc(O[C@H]3CC[C@@](C)(C(=O)O)CC3)cc3c2OCC3)CCC1`, 3.3 µL/min/1e6 cells.
Regarding `COc1cc(F)c(O[C@H]2CC[C@@](C)(C(=O)O)CC2)cc1C(=O)N[C@@H]1[C@H]2CC[C@H](C2)[C@@H]1C(=O)N[C@H](C)C(C)(C)C`, the hepatocyte CLint at 1 µM came out at 5.9 µL/min/1e6 cells.

The next data set is described as follows: Metabolic stability in human liver microsomes assessed as intrinsic clearance at 1 uM measured upto 30 mins by LC-MS/MS analysis. The conditions noted are these: read-out: CLH. The class given is ADME, Microsome.
In the case of `COc1cc(F)c(O[C@H]2CC[C@@](C)(c3n[nH]c(=O)o3)CC2)cc1C(=O)N[C@@H]1[C@H]2CC[C@H](C2)[C@@H]1C(=O)NCC1(C)CCC1`, the microsomal CLint at 1 µM was over 300 µL/min/mg.
On the same count and under the same terms, the result for `COc1cc(F)c(O[C@H]2CC[C@@](C)(C(=O)O)CC2)cc1C(=O)N[C@@H]1[C@H]2CC[C@H](C2)[C@@H]1C(=O)NCC(C)C` reads 5.7 µL/min/mg; that for `COc1cc(C#N)c(O[C@H]2CC[C@@](C)(C(=O)O)CC2)cc1C(=O)N[C@@H]1[C@H]2CC[C@H](C2)[C@@H]1C(=O)NCC1(C)CCC1`, 20 µL/min/mg.
Consider `COc1c(F)cc(O[C@H]2CC[C@@](C)(C(=O)O)CC2)cc1C(=O)N[C@@H]1[C@H]2CC[C@H](C2)[C@@H]1C(=O)NCC1(C)CCC1`, for which the microsomal CLint at 1 µM was found to be 44 µL/min/mg.
In the case of `COc1cc(C)c(O[C@H]2CC[C@@](C)(C(=O)O)CC2)cc1C(=O)N[C@@H]1[C@H]2CC[C@H](C2)[C@@H]1C(=O)NCC1(C)CCC1`, the microsomal CLint at 1 µM was found to be 38 µL/min/mg.
The same measure, in the same setting: the result for `COc1cc(F)c(O[C@H]2CC[C@@](C)(c3nnn[nH]3)CC2)cc1C(=O)N[C@@H]1[C@H]2CC[C@H](C2)[C@@H]1C(=O)NCC1(C)CCC1` reads 15 µL/min/mg; that for `COc1cc(C2CC2)c(O[C@H]2CC[C@@](C)(C(=O)O)CC2)cc1C(=O)N[C@@H]1[C@H]2CC[C@H](C2)[C@@H]1C(=O)NCC1(C)CCC1`, 27 µL/min/mg; that for `CC1(CNC(=O)[C@H]2[C@@H]3CC[C@@H](C3)[C@H]2NC(=O)c2cc(O[C@H]3CC[C@@](C)(C(=O)O)CC3)cc3c2OCC3)CCC1`, 25 µL/min/mg.
With `COc1cc(F)c(O[C@H]2CC[C@@](C)(C(=O)O)CC2)cc1C(=O)N[C@@H]1[C@H]2CC[C@H](C2)[C@@H]1C(=O)N[C@H](C)C(C)(C)C`, the microsomal CLint at 1 µM amounted to 33 µL/min/mg.

The nature of a further data set: Metabolic stability in human hepatocytes assessed as unbound intrinsic clearance measured per 10^6 viable cells/ml at 1 uM measured upto 120 mins by LC-MS/MS analysis. The settings on record: 2 h. The class given is ADME, cell-based, Hepatocyte.
On to `COc1cc(F)c(O[C@H]2CC[C@@](C)(c3n[nH]c(=O)o3)CC2)cc1C(=O)N[C@@H]1[C@H]2CC[C@H](C2)[C@@H]1C(=O)NCC1(C)CCC1`, for which the CL free worked out at 562 µL/min.
For `COc1cc(F)c(O[C@H]2CC[C@@](C)(C(=O)O)CC2)cc1C(=O)N[C@@H]1[C@H]2CC[C@H](C2)[C@@H]1C(=O)NCC(C)C`, the CL free was under 1.4 µL/min.
Same read-out and setting: the result for `COc1cc(C#N)c(O[C@H]2CC[C@@](C)(C(=O)O)CC2)cc1C(=O)N[C@@H]1[C@H]2CC[C@H](C2)[C@@H]1C(=O)NCC1(C)CCC1` reads 10 µL/min.
As to `COc1c(F)cc(O[C@H]2CC[C@@](C)(C(=O)O)CC2)cc1C(=O)N[C@@H]1[C@H]2CC[C@H](C2)[C@@H]1C(=O)NCC1(C)CCC1`, the CL free was determined as 9.5 µL/min.
On to `COc1cc(C)c(O[C@H]2CC[C@@](C)(C(=O)O)CC2)cc1C(=O)N[C@@H]1[C@H]2CC[C@H](C2)[C@@H]1C(=O)NCC1(C)CCC1`, for which the CL free was found to be 4.9 µL/min.
Consider `COc1cc(F)c(O[C@H]2CC[C@@](C)(c3nnn[nH]3)CC2)cc1C(=O)N[C@@H]1[C@H]2CC[C@H](C2)[C@@H]1C(=O)NCC1(C)CCC1`, for which the CL free turned out to be 13 µL/min.
Same read-out and setting: the result for `COc1cc(C2CC2)c(O[C@H]2CC[C@@](C)(C(=O)O)CC2)cc1C(=O)N[C@@H]1[C@H]2CC[C@H](C2)[C@@H]1C(=O)NCC1(C)CCC1` reads 13 µL/min; that for `CC1(CNC(=O)[C@H]2[C@@H]3CC[C@@H](C3)[C@H]2NC(=O)c2cc(O[C@H]3CC[C@@](C)(C(=O)O)CC3)cc3c2OCC3)CCC1`, 5.1 µL/min; that for `COc1cc(F)c(O[C@H]2CC[C@@](C)(C(=O)O)CC2)cc1C(=O)N[C@@H]1[C@H]2CC[C@H](C2)[C@@H]1C(=O)N[C@H](C)C(C)(C)C`, 11 µL/min.

A short description of the next data set: Octanol/water partition coefficient, logD of the compound at pH 7.4 by shake flask method.
Settings: not given
The class given is physicochemical.
`COc1cc(F)c(O[C@H]2CC[C@@](C)(c3n[nH]c(=O)o3)CC2)cc1C(=O)N[C@@H]1[C@H]2CC[C@H](C2)[C@@H]1C(=O)NCC1(C)CCC1`: the logD stood at 5.4.
With `COc1cc(F)c(O[C@H]2CC[C@@](C)(C(=O)O)CC2)cc1C(=O)N[C@@H]1[C@H]2CC[C@H](C2)[C@@H]1C(=O)NCC(C)C`, the logD stood at 2.6.
On the same count and under the same terms, the result for `COc1cc(C#N)c(O[C@H]2CC[C@@](C)(C(=O)O)CC2)cc1C(=O)N[C@@H]1[C@H]2CC[C@H](C2)[C@@H]1C(=O)NCC1(C)CCC1` reads 2.85.
Take `COc1c(F)cc(O[C@H]2CC[C@@](C)(C(=O)O)CC2)cc1C(=O)N[C@@H]1[C@H]2CC[C@H](C2)[C@@H]1C(=O)NCC1(C)CCC1`: the logD was 3.3.
On to `COc1cc(C)c(O[C@H]2CC[C@@](C)(C(=O)O)CC2)cc1C(=O)N[C@@H]1[C@H]2CC[C@H](C2)[C@@H]1C(=O)NCC1(C)CCC1`, for which the pH-dependent lipophilicity (logD) is 3.5.
`COc1cc(F)c(O[C@H]2CC[C@@](C)(c3nnn[nH]3)CC2)cc1C(=O)N[C@@H]1[C@H]2CC[C@H](C2)[C@@H]1C(=O)NCC1(C)CCC1` showed a logD of 2.8.
Still for that read-out and setting: the result for `COc1cc(C2CC2)c(O[C@H]2CC[C@@](C)(C(=O)O)CC2)cc1C(=O)N[C@@H]1[C@H]2CC[C@H](C2)[C@@H]1C(=O)NCC1(C)CCC1` reads 3.7; that for `CC1(CNC(=O)[C@H]2[C@@H]3CC[C@@H](C3)[C@H]2NC(=O)c2cc(O[C@H]3CC[C@@](C)(C(=O)O)CC3)cc3c2OCC3)CCC1`, 2.9.
`COc1cc(F)c(O[C@H]2CC[C@@](C)(C(=O)O)CC2)cc1C(=O)N[C@@H]1[C@H]2CC[C@H](C2)[C@@H]1C(=O)N[C@H](C)C(C)(C)C` displayed a log distribution coefficient (logD) of 3.4.
